ChEMBL document CHEMBL5137017, “Identification of NVP-CLR457 as an Orally Bioavailable Non-CNS-Penetrant pan-Class IA Phosphoinositol-3-Kinase Inhibitor” (J Med Chem, 2022)
Converted amounts (≈) assume the structure as drawn. The source made the active and inactive calls. The calls are words filed in the database; no cut-off is given here.

Experiments:
[1] = Drug concentration in OF1 mouse brain at 1 mg/kg, iv measured at 5 mins post dose by LC-MS/MS analysis; type: ADME, organism-based; details: in vivo
[2] = Volume of distribution at steady state in Sprague-Dawley rat at 3 mg/kg, po or iv measured upto 24 hrs by LC-MS/MS analysis; type: ADME, organism-based; details: in vivo
[3] = AUC in Sprague-Dawley rat at 1 mg/kg, iv measured for 0.083 to 48 hrs by LC-MS/MS analysis; type: ADME, organism-based; parameters: time upper 48 hrs, dose 1 mg/kg, time lower 0.083 hrs, route iv; details: in vivo
[4] = biological target: Phosphatidylinositol 4,5-bisphosphate 3-kinase catalytic subunit gamma isoform (Homo sapiens, UniProt P48736); assay: Inhibition of PI3Kgamma (unknown origin) using phosphatidylinositol 4,5-bisphosphate as substrate measured for 15 to 60 mins by TR-FRET based Adapta universal kinase assay
Chain of Phosphatidylinositol 4,5-bisphosphate 3-kinase catalytic subunit gamma isoform (P48736 whole entry, canonical isoform): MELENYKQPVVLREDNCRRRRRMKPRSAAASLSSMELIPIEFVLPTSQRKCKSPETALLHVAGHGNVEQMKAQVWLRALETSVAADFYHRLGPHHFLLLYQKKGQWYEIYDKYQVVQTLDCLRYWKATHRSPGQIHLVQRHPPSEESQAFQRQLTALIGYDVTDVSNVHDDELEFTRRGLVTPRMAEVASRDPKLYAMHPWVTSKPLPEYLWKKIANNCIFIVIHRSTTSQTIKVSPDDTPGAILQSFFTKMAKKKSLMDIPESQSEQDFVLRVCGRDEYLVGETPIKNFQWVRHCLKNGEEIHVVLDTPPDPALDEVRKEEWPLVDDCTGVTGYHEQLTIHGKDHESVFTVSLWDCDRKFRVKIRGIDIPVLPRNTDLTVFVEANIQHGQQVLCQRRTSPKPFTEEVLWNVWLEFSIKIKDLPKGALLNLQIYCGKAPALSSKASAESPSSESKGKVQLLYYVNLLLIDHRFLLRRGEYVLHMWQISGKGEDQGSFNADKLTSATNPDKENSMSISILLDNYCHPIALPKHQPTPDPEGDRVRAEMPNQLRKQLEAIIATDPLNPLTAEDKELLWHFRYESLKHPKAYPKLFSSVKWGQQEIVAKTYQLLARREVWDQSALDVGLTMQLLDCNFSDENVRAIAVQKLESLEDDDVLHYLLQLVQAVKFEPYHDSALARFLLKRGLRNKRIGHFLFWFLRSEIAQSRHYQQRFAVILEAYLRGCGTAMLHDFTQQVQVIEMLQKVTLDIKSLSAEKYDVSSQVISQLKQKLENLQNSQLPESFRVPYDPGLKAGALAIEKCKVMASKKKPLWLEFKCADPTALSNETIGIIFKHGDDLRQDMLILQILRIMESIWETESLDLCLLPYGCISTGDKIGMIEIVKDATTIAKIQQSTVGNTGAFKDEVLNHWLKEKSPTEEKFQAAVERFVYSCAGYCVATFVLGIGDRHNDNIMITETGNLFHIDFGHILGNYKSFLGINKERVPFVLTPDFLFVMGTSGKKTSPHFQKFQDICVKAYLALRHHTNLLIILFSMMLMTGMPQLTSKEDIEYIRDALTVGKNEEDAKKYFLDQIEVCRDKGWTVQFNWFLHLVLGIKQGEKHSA

[5] = Inhibition of wild type PI3K in human HCC1143 cells assessed as reduction in phosphorylation of AKT at Ser473 residue by Western blot analysis; type: cell-based
[6] = Inhibition of PI3K PTEN mutant in human MDA-MB-468 cells assessed as reduction in phosphorylation of AKT at Ser473 residue by Western blot analysis; type: cell-based
[7] = Inhibition of PI3K PTEN mutant in human HCC38 cells assessed as reduction in phosphorylation of AKT at Ser473 residue by Western blot analysis; type: cell-based
[8] = Plasma protein binding in beagle dog plasma at 0.3 mg/kg,po or 0.1 mg/kg,iv measured after 4 hrs by rapid equilibrium dialysis method; type: ADME, organism-based, Canis lupus familiaris; details: read-out: PPB (converted)
[9] = Volume of distribution at steady state in beagle dog at 0.3 mg/kg,po or 0.1 mg/kg,iv measured upto 24 hrs by LC-MS/MS analysis; type: ADME, organism-based, Canis lupus familiaris; details: in vivo
[10] = Dose normalized Cmax in Sprague-Dawley rat at 100 mg/kg, po measured upto 24 hrs by LC-MS/MS analysis; type: ADME, organism-based; details: in vivo
[11] = Dose normalized Cmax in beagle dog at 0.3 mg/kg, po measured upto 24 hrs by LC-MS/MS analysis; type: ADME, organism-based, Canis lupus familiaris; details: in vivo
[12] = Tmax in Sprague-Dawley rat at 100 mg/kg, po measured upto 24 hrs by LC-MS/MS analysis; type: ADME, organism-based; details: in vivo
[13] = Lipophilicity, logD of compound at pH 6.5; type: physicochemical; details: buffer
[14] = Aqueous solubility of compound in buffer at pH 4 by HPLC analysis; type: physicochemical
[15] = Solubility of compound in FaSSIF at pH 6.5 measured upto 120 mins by HPLC analysis; type: physicochemical
[16] = AUCinfinity in Beagle dog at 6 mg/kg, po measured upto 24 hrs using crystalline form of sample by LC-MS/MS analysis; type: ADME, organism-based, Canis lupus familiaris; parameters: dose 6 mg/kg, time < 24 hrs, route po; details: in vivo
[17] = Cmax in Beagle dog at 6 mg/kg, po measured upto 24 hrs using crystalline form of sample by LC-MS/MS analysis; type: ADME, organism-based, Canis lupus familiaris; parameters: dose 6 mg/kg, time < 24 hrs, route po; details: in vivo
[18] = Cmax in Beagle dog at 5.4 mg/kg, po measured upto 24 hrs using PVP-ASD form of sample by LC-MS/MS analysis; type: ADME, organism-based, Canis lupus familiaris; parameters: dose 5.4 mg/kg, time < 24 hrs, route po; details: in vivo
[19] = Tmax in Beagle dog at 5.4 mg/kg, po measured upto 24 hrs using PVP-ASD form of sample by LC-MS/MS analysis; type: ADME, organism-based, Canis lupus familiaris; details: in vivo
[20] = Apparent permeability across basolateral to apical side in human Caco-2 cells at 10 uM measured after 120 mins by LC-MS/MS analysis; type: ADME, cell-based
[21] = Efflux ratio of apparent permeability from […] in human Caco-2 cells at 10 uM incubated upto 120 mins by LC-MS/MS analysis; type: ADME, cell-based; details: caco-2, 2 h
Caco-2 = assay: Nonspecific permeability coefficient in human Caco-2 cells at 0.25 to 30 uM measured after 120 mins by LC-MS/MS analysis; type: ADME, cell-based; details: caco-2, 2 h, dose 0.25-30 µM
[22] = Apparent permeability in human Caco-2 cells assessed as Km by Michaelis-Menten based analysis; type: ADME, cell-based; details: read-out: Km(app)
[23] = In vivo Inhibition of AKT phosphorylation at Ser473 residue in athymic nude mouse xenografted with rat Rat1-myr-p110alpha cells at 3 mg/kg, po qd measured after 1 hr; type: functional
Mus musculus = assay: In vivo Inhibition of AKT phosphorylation at Ser473 residue in athymic nude mouse xenografted with rat Rat1-myr-p110alpha cells at 10 mg/kg, po qd measured after 1 to 4 hrs; type: functional, organism-based; details: time 1-4 hrs
Rat1 [24] = assay: Antitumor activity at rat Rat1 cells expressing myr-p110alpha xenografted in athymic nude mouse assessed as T/C ratio at 10 mg/kg, po qd measured after 14 to 22 days; type: functional; details: time 14-22 day
Rat1 [25] = assay: Antitumor activity at rat Rat1 cells expressing myr-p110alpha xenografted in athymic nude mouse assessed as tumor growth inhibition at 20 mg/kg, po bid measured after 9 days; type: functional; details: Rat1, 216 h, time 9 day
[26] = Effect on plasma insulin level in athymic nude mouse xenografted with rat Rat1 cells expressing myr-p110alpha at 10 mg/kg, po qd measured upto 14 hrs by glucometer analysis; type: toxicity, organism-based; details: in vivo
[27] = Effect on plasma insulin level in athymic nude mouse xenografted with rat Rat1 cells expressing myr-p110alpha at 20 mg/kg, po qd measured for 1 to 10 hrs by glucometer analysis; type: toxicity, organism-based; details: in vivo, time 1-10 hrs
[28] = Cmax in athymic nude mouse xenografted with rat Rat1 cells expressing myr-p110alpha at 3 mg/kg, po measured after 8 days by LC-MS/MS analysis; type: ADME, organism-based; parameters: time 8 day, dose 3 mg/kg, route po; details: in vivo
[29] = Cmax in athymic nude mouse xenografted with rat Rat1 cells expressing myr-p110alpha at 10 mg/kg, po measured after 8 days by LC-MS/MS analysis; type: ADME, organism-based; parameters: dose 10 mg/kg, time 8 day, route po; details: in vivo
[30] = Cmax in athymic nude mouse xenografted with rat Rat1 cells expressing myr-p110alpha at 20 mg/kg, po measured after 8 days by LC-MS/MS analysis; type: ADME, organism-based; parameters: time 8 day, dose 20 mg/kg, route po; details: in vivo
[31] = Clast in athymic nude mouse xenografted with rat Rat1 cells expressing myr-p110alpha at 3 mg/kg, po measured after 8 days by LC-MS/MS analysis; type: ADME, organism-based; details: in vivo, time 8 day, read-out: Clast
[32] = Clast in athymic nude mouse xenografted with rat Rat1 cells expressing myr-p110alpha at 10 mg/kg, po measured after 8 days by LC-MS/MS analysis; type: ADME, organism-based; details: in vivo, time 8 day, read-out: Clast
[33] = Clast in athymic nude mouse xenografted with rat Rat1 cells expressing myr-p110alpha at 20 mg/kg, po measured after 8 days by LC-MS/MS analysis; type: ADME, organism-based; details: in vivo, time 8 day, read-out: Clast
[34] = AUC(0 to Tlast) in athymic nude mouse xenografted with rat Rat1 cells expressing myr-p110alpha at 20 mg/kg, po measured after 8 days by LC-MS/MS analysis; type: ADME, organism-based; parameters: dose 20 mg/kg, time 8 day, route po; details: in vivo
[35] = Dose normalized AUC(0 to Tlast) in athymic nude mouse xenografted with rat Rat1 cells expressing myr-p110alpha at 10 mg/kg, po measured after 8 days by LC-MS/MS analysis; type: ADME, organism-based; details: in vivo, 192 h, time 8 day
[36] = Dose normalized AUC(0 to Tlast) in athymic nude mouse xenografted with rat Rat1 cells expressing myr-p110alpha at 40 mg/kg, po measured after 8 days by LC-MS/MS analysis; type: ADME, organism-based; details: in vivo, 192 h, time 8 day

- Ct [1]: 67 pmol/g
- Vdss [2]: 4.4 L/kg
- AUC [3]: 1.77 µM·h
- IC50 [4]: 230 nM
- IC50 [5]: 26 nM
- IC50 [6]: 263 nM
- IC50 [7]: 88 nM
- fraction unbound at 4 h [8]: 0.29
- Vdss [9]: 1.5 L/kg
- Cmax/dose [10]: 22 nM
- Cmax/dose [11]: 1121 nM
- Tmax [12]: 24 h
- logD [13]: 2
- solubility [14]: 31 µM (≈ 14.1 µg/mL)
- solubility at 2 h [15]: 31 µM (≈ 14.1 µg/mL)
- AUC(0-inf) [16]: 44.6 µM·h
- Cmax [17]: 1240 nM
- Cmax [18]: 10700 nM
- Tmax [19]: 2 h
- Papp B→A at 2 h, 10 µM [20]: 19 ×10⁻⁶ cm/s
- Ratio [21]: 2.2
- Pm (Caco-2): 73 10^-5 cm/min
- Km [22]: > 30 µM
- Cmax [28]: 1480 nM
- Cmax [29]: 2280 nM
- Cmax [30]: 2910 nM
- concentration at 192 h [31]: 3 nM
- concentration at 192 h [32]: 140 nM
- concentration at 192 h [33]: 110 nM
- AUC(0-t) at 192 h [34]: 26 µM·h
- AUC/dose [35]: 1.57 µM·h
- AUC/dose [36]: 1.35 µM·h
SMILES: C[C@H]1OC(=O)N(c2nc(-c3cnc(N)nc3C(F)(F)F)cc(N3CCOCC3)n2)[C@H]1CO
- inhibition in vivo at 3 mg/kg [23]: 80%
- inhibition (Mus musculus): Active
- T/C (Rat1 [24]): 0.14
- inhibition in vivo at 20 mg/kg (Rat1 [25]): > 80%
- Activity [26]: Toxic
- Activity [27]: Toxic
